Results from the SangsterLogP compilation.

| Compound | logP |
| --- | --- |
| COC(=O)c1ccc(/N=N/N(C)C)cc1 | 3.22 |
| CN(C)/N=N/c1ccc([N+](=O)[O-])cc1 | 3.25 |
| CN(C)/N=N/c1ccc(C(F)(F)F)cc1 | 4 |
| COC(=O)c1cccc(/N=N/N(C)C)c1 | 3.12 |
| CN(Cc1ccccc1)N=Nc1ccc(C(N)=O)cc1 | 2.77 |
| CCN(CC)N=Nc1ccc(S(C)(=O)=O)cc1 | 2.6 |
| CCN(C)/N=N/c1ccccc1C(N)=O | 2.59 |
| CC(C)N(N=Nc1ccc(C(N)=O)cc1)C(C)C | 3 |
| CN(C)/N=N/c1cccc(C(N)=O)c1 | 1.3 |
| CN(C)/N=N/c1ccc(S(C)(=O)=O)cc1 | 1.59 |
| COc1ccc(/N=N/N(C)C)cc1 | 2.99 |
| CN(C)/N=N/c1ccc(S(N)(=O)=O)cc1 | 0.85 |
| CCN(CC)N=Nc1ccccc1C(N)=O | 2.96 |
| CN(C)N=Nc1ccc(S(=O)(=O)Nc2ccno2)cc1 | 0.42 |
| CCCN(C)N=Nc1ccc(C(=O)O)cc1 | 0.46 |
| CCN(C)N=Nc1ccccc1C(=O)O | 0.11 |
| CCN(CC)N=Nc1ccccc1C(=O)O | 1.49 |
| CN(C)/N=N/c1cccc(C(=O)O)c1 | -0.38 |
| CCCCN(C)/N=N/c1ccccc1C(N)=O | 3.52 |
| COC(=O)c1ccccc1/N=N/N(C)C | 2.51 |

| Compound | logP |
| --- | --- |
| CCCCN(C)/N=N/c1ccc(C(N)=O)cc1 | 2.68 |
| C=CCN(CC=C)N=Nc1ccccc1C(=O)O | 0.62 |
| CCOC(=O)c1ccc(/N=N/N(C)C)cc1 | 3.66 |
| CCCCCN(C)N=Nc1ccc(C(=O)O)cc1 | 1.46 |
| CCCCCN(C)N=Nc1ccc(S(=O)(=O)Nc2ccccn2)cc1 | 2.16 |
| CNN=Nc1ccc(C(N)=O)cc1 | 0.48 |
| CN(C)/N=N/c1ccccc1C(=O)O | -0.28 |
| CCN(CC)/N=N/c1ccc(C(N)=O)cc1 | 2.26 |
| CCCCN(C)N=Nc1ccc(C(=O)O)cc1 | 0.96 |
| CCCCCN(C)N=Nc1ccc(S(=O)(=O)Nc2nccc(C)n2)cc1 | 2.34 |
| CC(=O)N(C)N=Nc1ccc(C(N)=O)cc1 | 1.37 |
| CN(CC(F)(F)F)N=Nc1ccc(C(N)=O)cc1 | 1.86 |
| CCNN=Nc1ccc(C(N)=O)cc1 | 1.19 |
| CCCC(C)N(C)N=Nc1ccc(C(=O)O)cc1 (stereo not given) | 1.35 |
| CCCCCN(C)N=Nc1ccc(C(N)=O)cc1 | 3.18 |
| CCOC(=O)c1ccc(N=NN(C)CCO)cc1 | 2.66 |
| CN(C)N=Nc1ccc(S(=O)(=O)CCO)cc1 | 1.15 |
| CCCN(C)N=Nc1ccc(C(N)=O)cc1 | 2.17 |
| CCN(CC)N=Nc1cc([N+](=O)[O-])cc([N+](=O)[O-])c1 | 4.69 |
| CCN(C)/N=N/c1ccc(C(N)=O)cc1 | 1.69 |
